US6683076B2, “Methods for therapeutic use of glucosylceramide synthesis inhibitors and composition thereof” (Oxford Glyco-Sciences (UK) Ltd, priority 2000, dated 2004)
Read-outs that look alike come from different tables or passages of the source. Marks after values point to notes of the source that are not given here.

How the values were obtained:
[1] = test system: domestic cat model of Niemann-Pick C; assay: Feline model of NPC: neurologic and clinical findings; format: in vivo; parameters: Front leg Hopping / Rear leg hopping / Vision-Menace: scale not given here; settings: for Ataxia / Front leg Hopping / Intention tremors / Rear leg hopping / Vision-Menace: NPC-affected cat S222, NB-DNJ treated
Protocol: A breeding colony for this animal model of NPC is being maintained to study the disease and its potential treatments (Brown et al (1996) J. Inherit Metab. Dis. 19:319-330).
From seven feline NPC carrier litter mates, normal and NPC-affected male and female cats were selected for the study. The affected female and unaffected male began treatment with NB-DNJ at 1200 mg/kg/day. […] During a brief recovery period for these animals, an unrelated normal cat was treated to determine the maximum tolerated dose for NB-DNJ in this species. Based on this dose-ranging work, the NPC-affected and unaffected litter mates were restarted with NB-DNJ at 50 mg/kg/day. Over the following weeks, the administration level was increased to 150 mg/kg/day. […] Except for brief intervals when the treatments were withheld because of transient appetite loss, the NB-DNJ dosages were continued for about three months. On this date, the animals were sacrificed for histologic and lipid analyses.
Cat number: S222; Status: NPC-affected, NB-DNJ-treated; […]; […]. […] […] also was noted to have bilateral luxating patellas at about the same time. […] Over the course of the next 20 weeks, her disease symptoms slowly worsened. However, on several occasions it was noted by the consulting neurologist that her symptoms were less severe than those of S221. […] The following is a tabulation of her neurologic and medical findings:

[2] = format: in vivo; settings: for Weight: NPC-affected cat S222, NB-DNJ treated, measured within 10 days before neuronal assessment
GM2 ganglioside = assay: Immunocytochemistry with anti-GM2 ganglioside antibodies in cat brain; format: in vivo
Source text: The following sections highlight the histologic and lipid analysis findings for the study animals. As with humans, there is an increased expression of gangliosides in feline NPC neurons. […] There is a corresponding increase in neuronal ganglioside level and histology changes seen in NPC humans.
Immunocytochemical studies with anti-GM2 ganglioside antibodies were used to probe for ganglioside expression in treated vs. untreated cats in a qualitative manner.

NPC^−/− mice = assay: Mouse model of NPC: symptoms and survival; format: in vivo
Source text: Colonies of mutant mice expressing the NPC phenotype have been described (Pentchev et al., 1984, Miyawaki et al., 1986; Kitagawa, 1987), and has been validated by a number of criteria as an authentic model of the disease (Akaboshi et al., 1997). NPC mice display clinical signs of the disease around 6-8 weeks of age with mild intention tremor and ataxia. […] Death results by 10-12 weeks.
Breeding pairs of mice heterozygous for the mutation causing NPC were used to produce offspring that are NPC^−/− homozygotes. These animals, along with their normal wildtype littermates, were used in the following NB-DNJ drug study. Where indicated, NB-DNJ was administered daily by mixing with ground mouse chow. Mice were PCR genotyped 2-3 weeks of age to determine their genetic background.
[…] NPC^−/− mice, with ages ranging from 3-7 weeks, were entered into a treatment study. Seven were treated with 1200 mg/kg/day and six were untreated. […] By 10 weeks of age, all six untreated NPC^−/− mice died or were sacrificed according to veterinary animal care requirements. In contrast, 4 of 7 NPC^−/− mice treated with NB-DNJ lived into their twelfth week. […] In this experiment, untreated NPC^−/− mice survived 65±1 days (average ±SE; n=6), while NPC^−/− mice treated with NB-DNJ at 1200 mg/kg/day survived 88±4 days (n=7).

alpha-glucosidase 1 = molecular target: T1, alpha-glucosidase 1 (Homo sapiens, UniProt Q13724); settings: cited from earlier work
T1 sequence (Q13724 1-837): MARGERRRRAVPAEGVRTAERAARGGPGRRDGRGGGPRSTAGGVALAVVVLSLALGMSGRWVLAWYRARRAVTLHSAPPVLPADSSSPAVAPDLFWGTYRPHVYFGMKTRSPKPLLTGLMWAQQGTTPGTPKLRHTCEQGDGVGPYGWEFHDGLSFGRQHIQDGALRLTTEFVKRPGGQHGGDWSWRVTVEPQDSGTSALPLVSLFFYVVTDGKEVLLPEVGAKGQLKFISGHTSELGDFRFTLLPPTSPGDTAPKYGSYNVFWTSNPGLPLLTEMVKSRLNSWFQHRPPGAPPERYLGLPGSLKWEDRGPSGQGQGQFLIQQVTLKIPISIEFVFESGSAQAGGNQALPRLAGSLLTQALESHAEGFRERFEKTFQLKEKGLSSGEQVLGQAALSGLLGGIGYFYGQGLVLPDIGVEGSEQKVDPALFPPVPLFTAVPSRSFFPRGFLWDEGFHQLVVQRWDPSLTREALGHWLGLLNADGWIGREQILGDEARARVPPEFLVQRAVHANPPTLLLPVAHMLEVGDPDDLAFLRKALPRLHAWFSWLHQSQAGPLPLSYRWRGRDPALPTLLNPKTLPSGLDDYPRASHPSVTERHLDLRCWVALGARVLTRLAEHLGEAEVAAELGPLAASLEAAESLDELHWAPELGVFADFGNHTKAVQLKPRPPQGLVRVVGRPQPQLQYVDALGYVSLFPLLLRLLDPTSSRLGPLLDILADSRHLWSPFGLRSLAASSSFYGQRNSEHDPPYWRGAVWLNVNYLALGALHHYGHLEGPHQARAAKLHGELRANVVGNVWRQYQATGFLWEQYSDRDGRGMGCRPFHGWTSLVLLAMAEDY

[3] = test system: glucosylceramide synthesis; settings: cells treated with NB-DNJ; cited from earlier work
[4] = patients with Parkinson's disease, stroke and spinal cord injuries; cited from earlier work
[5] = NPC-affected cat S222, 100 mg/kg/day

CCCCN1C[C@H](O)[C@@H](O)[C@H](O)[C@H]1CO [NB-DNJ, N-butyldeoxynojirimycin]
Severity of disease symptoms versus untreated NPC cat S221 ([1]; NPC-affected cat S222, 100 mg/kg/day, noted by consulting neurologist): less severe
Ataxia ([1]; Week 6.5): none
Front leg Hopping ([1]; Week 6.5): 2
Intention tremors ([1]; Week 6.5): none
Rear leg hopping ([1]; Week 6.5): 2
Vision-Menace ([1]; Week 6.5): 2
Ataxia ([1]; Week 12.5): none
Front leg Hopping ([1]; Week 12.5): 2
Intention tremors ([1]; Week 12.5): mild
Vision-Menace ([1]; Week 12.5): 1
Rear leg hopping ([1]; Week 12.5, diagnosed with bilateral luxating patellas): 2^†
Ataxia ([1]; Week 16): none
Front leg Hopping ([1]; Week 16): 2
Intention tremors ([1]; Week 16): mild
Rear leg hopping ([1]; Week 16): 2
Vision-Menace ([1]; Week 16): 1
Ataxia ([1]; Week 18.5): none
Front leg Hopping ([1]; Week 18.5): 2
Intention tremors ([1]; Week 18.5): mild
Rear leg hopping ([1]; Week 18.5): 1.5
Vision-Menace ([1]; Week 18.5): 1.5
Ataxia ([1]; Week 20.5): none
Front leg Hopping ([1]; Week 20.5): 2
Intention tremors ([1]; Week 20.5): mod
Rear leg hopping ([1]; Week 20.5): 2
Vision-Menace ([1]; Week 20.5): .5
Ataxia ([1]; Week 22.5): none
Front leg Hopping ([1]; Week 22.5): 1.5
Intention tremors ([1]; Week 22.5): mild
Rear leg hopping ([1]; Week 22.5): 1.5
Vision-Menace ([1]; Week 22.5): 1
Ataxia ([1]; Week 24.5): none
Front leg Hopping ([1]; Week 24.5): 2
Intention tremors ([1]; Week 24.5): mod
Rear leg hopping ([1]; Week 24.5): 2
Vision-Menace ([1]; Week 24.5): 1
Ataxia ([1]; Week 26.5): none
Front leg Hopping ([1]; Week 26.5): 2
Intention tremors ([1]; Week 26.5): mild
Rear leg hopping ([1]; Week 26.5): 1.5
Vision-Menace ([1]; Week 26.5): 1
Ataxia ([1]; Week 29): mod
Front leg Hopping ([1]; Week 29): 2
Intention tremors ([1]; Week 29): mod
Rear leg hopping ([1]; Week 29): 1
Vision-Menace ([1]; Week 29): 1
Ataxia ([1]; Week 30.5): mild
Intention tremors ([1]; Week 30.5): mod
Vision-Menace ([1]; Week 30.5): 1
Ataxia ([1]; Week 32.5): mod
Front leg Hopping ([1]; Week 32.5): 1
Intention tremors ([1]; Week 32.5): mod
Rear leg hopping ([1]; Week 32.5): 1
Vision-Menace ([1]; Week 32.5): 0.5
Symptoms of neurologic degeneration typical for NPC ([1]; cats, NB-DNJ treatment): qualitatively delays
Fur colour [2, 5]: light-coloured fur effect
Tolerability [2, 5]: reasonably well handled
Appetite ([2]; NPC-affected cat S222, 100 mg/kg/day, relative to normal and NPC-affected cats): significantly reduced
Weight ([2]; Week 6.5): 522 gms
Weight ([2]; Week 12.5): 965 gms
Weight ([2]; Week 16): 1265 gms
Weight ([2]; Week 18.5): 1390 gms
Weight ([2]; Week 20.5): 1453 gms
Weight ([2]; Week 22.5): 1469 gms
Weight ([2]; Week 24.5): 1495 gms
Weight ([2]; Week 26.5): 1525 gms
Weight ([2]; Week 29): 1565 gms
Weight ([2]; Week 30.5): 1590 gms
Weight ([2]; Week 32.5): 1677 gms
Hepatotoxicity ([2]; NPC-affected cat S222, starting dose 1200 mg/kg/day): acutely hepatotoxic
Hepatotoxicity ([2]; cats, 150 mg/kg/day): hepatotoxic
Hepatotoxicity ([2]; cats, 1200 mg/kg/day): acutely hepatotoxic
Appetite and overall responsiveness ([2]; normal cat S161, 100 mg/kg/day): decreased
Hair colour ([2]; normal cat S218, 100 mg/kg/day): markedly more beige
Serum levels of liver enzymes ([2]; normal cat S218, 1200 mg/kg/day): dramatic elevation
Appetite ([2]; normal cat S218, eventual dosage 100 mg/kg/day): significantly less than that of a normal cat
Hepatotoxicity ([2]; normal cat S218, starting dose 1200 mg/kg/day): acutely hepatotoxic
Weight at the end of the treatment period ([2]; normal female cat S218, 100 mg/kg/day, normal female cat expected about 4 kg): about 2.4 kg
GM2 immunoreactivity in granular cell layer of cerebellum (GM2 ganglioside; NPC cat treated with NB-DNJ): largely devoid of GM2 immunoreactivity
GM2 labeling in Purkinje cells (GM2 ganglioside; NPC cat treated with NB-DNJ): qualitatively less GM2 labeling
GM2 labeling in the cerebral cortex (GM2 ganglioside; NPC cat treated with NB-DNJ, compared to untreated NPC cat): qualitatively less severe
Accumulation of glucosylceramide-containing glycolipids (e.g. GM2) (GM2 ganglioside; NPC cats): qualitatively decreases
Symptoms of neurologic degeneration typical for NPC (NPC^−/− mice; NPC mice, 1200 mg/kg/day): qualitatively delaying
Increase in longevity (NPC^−/− mice; NPC mice, 1200 mg/kg/day versus untreated): 26%
Mice displaying symptoms of neurologic effects (NPC^−/− mice; NPC^−/− mice, 1200 mg/kg/day in chow, by 8 weeks of age, untreated 5 out of 6): none
Mice displaying any degree of symptoms (NPC^−/− mice; NPC^−/− mice, 1200 mg/kg/day, by 9 weeks of age, untreated all six): 4 of 7
Survival (average ±SE) (NPC^−/− mice; NPC^−/− mice, 1200 mg/kg/day, n=7, untreated 65±1 days): 88 ± 4 days
Surviving mice displaying some degree of NPC-induced neural degeneration (NPC^−/− mice; NPC^−/− mice, 1200 mg/kg/day, twelfth week): Three of these four
Mice that lived into their twelfth week (NPC^−/− mice; NPC^−/− mice, 1200 mg/kg/day, all untreated dead by 10 weeks): 4 of 7
Inhibition of alpha-glucosidase 1 (alpha-glucosidase 1): potent inhibitor
Glucosylceramide levels [3]: markedly reduced

GM1 ganglioside
Neurodegenerative processes [4]: seem to improve
